From the kinase profiling compilation of Christmann-Franck et al. (2016)

Key:
Assay in all cases: KINOMEscan competition binding
Conditions in all cases: compound 10.0 µM
[1] = test system: EGFR (human), P00533 [P753S; 747-752 del]
CDK17 (human) = CDK17 (human) (UniProt Q00537)
[2] = test system: ABL1 (human), P00519 [H396P]
[3] = test system: FLT3 (human), P36888 [D835Y]
[4] = test system: EGFR (human), P00533 [G719C]
HCK (human) = HCK (human) (UniProt P08631)
[5] = test system: EGFR (human), P00533 [A750P; 747-749 del]
INSR (human) = INSR (human) (UniProt P06213)
CDK7 (human) = CDK7 (human) (UniProt P50613)
CaMK1 (human) = CaMK1 (human) (UniProt Q14012)
HIPK1 (human) = HIPK1 (human) (UniProt Q86Z02)
DDR1 (human) = DDR1 (human) (UniProt Q08345)
PDGFRA (human) = PDGFRA (human) (UniProt P16234)
ABL1 (human) = ABL1 (human) (UniProt P00519)
[6] = test system: EGFR (human), P00533 [747-751 del / S ins]
PTK2B (human) = PTK2B (human) (UniProt Q14289)
MAPK10 (human) = MAPK10 (human) (UniProt P53779)
CHUK (human) = CHUK (human) (UniProt O15111)
[7] = test system: RET (human), P07949 [V804M]
PTK6 (human) = PTK6 (human) (UniProt Q13882)
STK36 (human) = STK36 (human) (UniProt Q9NRP7)
EPHB2 (human) = EPHB2 (human) (UniProt P29323)
[8] = target: JAK1 JH1 catalytic (human) (UniProt P23458)
CDKL2 (human) = CDKL2 (human) (UniProt Q92772)
LCK (human) = LCK (human) (UniProt P06239)
PRKCE (human) = PRKCE (human) (UniProt Q02156)
FGFR3 (human) = FGFR3 (human) (UniProt P22607)
KIT (human) = KIT (human) (UniProt P10721)
FGR (human) = FGR (human) (UniProt P09769)
FES (human) = FES (human) (UniProt P07332)
[9] = test system: ABL1 (human), P00519 [Y253F]
[10] = test system: ABL1 (human), P00519 [Q252H]
[11] = test system: EGFR (human), P00533 [752-759 del]
MAPK9 (human) = MAPK9 (human) (UniProt P45984)
[12] = test system: EGFR (human), P00533 [746-750 del]
TNNI3K (human) = TNNI3K (human) (UniProt Q59H18)
CAMK1G (human) = CAMK1G (human) (UniProt Q96NX5)
CDK18 (human) = CDK18 (human) (UniProt Q07002)
[13] = test system: ABL1 (human), P00519 [T315I]
[14] = test system: EGFR (human), P00533 [L858R]

Chain of FES (human) (P07332 whole entry, looked up): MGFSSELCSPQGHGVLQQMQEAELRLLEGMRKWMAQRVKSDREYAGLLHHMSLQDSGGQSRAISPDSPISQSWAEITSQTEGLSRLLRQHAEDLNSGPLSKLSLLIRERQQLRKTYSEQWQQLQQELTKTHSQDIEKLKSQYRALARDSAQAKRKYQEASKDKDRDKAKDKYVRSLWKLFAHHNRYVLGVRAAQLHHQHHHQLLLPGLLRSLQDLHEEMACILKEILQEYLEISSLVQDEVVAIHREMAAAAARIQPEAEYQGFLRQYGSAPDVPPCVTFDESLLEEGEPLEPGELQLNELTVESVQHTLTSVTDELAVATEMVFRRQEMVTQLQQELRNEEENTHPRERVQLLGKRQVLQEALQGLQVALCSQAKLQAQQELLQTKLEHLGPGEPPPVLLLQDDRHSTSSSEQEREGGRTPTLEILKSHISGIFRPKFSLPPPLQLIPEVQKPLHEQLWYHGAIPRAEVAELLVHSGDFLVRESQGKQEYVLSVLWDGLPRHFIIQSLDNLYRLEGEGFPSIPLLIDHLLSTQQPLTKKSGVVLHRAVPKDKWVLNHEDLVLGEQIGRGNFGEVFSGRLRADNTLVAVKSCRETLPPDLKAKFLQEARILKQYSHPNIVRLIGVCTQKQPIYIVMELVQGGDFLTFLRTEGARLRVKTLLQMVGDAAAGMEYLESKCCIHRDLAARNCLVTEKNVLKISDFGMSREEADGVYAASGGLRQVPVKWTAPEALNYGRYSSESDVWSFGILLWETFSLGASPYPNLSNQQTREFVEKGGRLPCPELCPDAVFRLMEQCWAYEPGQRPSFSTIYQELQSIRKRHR
Chain of CDK7 (human) (P50613 whole entry, looked up): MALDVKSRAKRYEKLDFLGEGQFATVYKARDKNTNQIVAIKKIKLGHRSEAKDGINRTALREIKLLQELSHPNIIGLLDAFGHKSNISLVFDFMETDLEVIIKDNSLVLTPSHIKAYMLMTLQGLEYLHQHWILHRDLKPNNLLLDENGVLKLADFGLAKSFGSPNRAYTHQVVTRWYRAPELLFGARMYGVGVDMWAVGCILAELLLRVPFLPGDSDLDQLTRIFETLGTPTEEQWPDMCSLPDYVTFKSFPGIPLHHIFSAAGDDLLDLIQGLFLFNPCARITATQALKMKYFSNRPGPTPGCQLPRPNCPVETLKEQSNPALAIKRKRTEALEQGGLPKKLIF
Chain of PTK6 (human) (Q13882 whole entry, looked up): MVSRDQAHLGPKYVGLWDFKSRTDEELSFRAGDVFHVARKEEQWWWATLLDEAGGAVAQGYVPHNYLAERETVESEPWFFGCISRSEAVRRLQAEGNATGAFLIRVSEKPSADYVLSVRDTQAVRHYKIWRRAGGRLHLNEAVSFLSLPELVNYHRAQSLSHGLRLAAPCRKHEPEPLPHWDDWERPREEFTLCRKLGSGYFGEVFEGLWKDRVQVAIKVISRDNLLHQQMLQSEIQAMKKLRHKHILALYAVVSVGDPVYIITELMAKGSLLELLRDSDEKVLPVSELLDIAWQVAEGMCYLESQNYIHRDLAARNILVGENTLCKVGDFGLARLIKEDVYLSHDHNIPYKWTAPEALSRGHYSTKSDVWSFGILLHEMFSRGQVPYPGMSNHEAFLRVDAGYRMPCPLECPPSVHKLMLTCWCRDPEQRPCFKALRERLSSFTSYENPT
Chain of MAPK10 (human) (P53779 whole entry, looked up): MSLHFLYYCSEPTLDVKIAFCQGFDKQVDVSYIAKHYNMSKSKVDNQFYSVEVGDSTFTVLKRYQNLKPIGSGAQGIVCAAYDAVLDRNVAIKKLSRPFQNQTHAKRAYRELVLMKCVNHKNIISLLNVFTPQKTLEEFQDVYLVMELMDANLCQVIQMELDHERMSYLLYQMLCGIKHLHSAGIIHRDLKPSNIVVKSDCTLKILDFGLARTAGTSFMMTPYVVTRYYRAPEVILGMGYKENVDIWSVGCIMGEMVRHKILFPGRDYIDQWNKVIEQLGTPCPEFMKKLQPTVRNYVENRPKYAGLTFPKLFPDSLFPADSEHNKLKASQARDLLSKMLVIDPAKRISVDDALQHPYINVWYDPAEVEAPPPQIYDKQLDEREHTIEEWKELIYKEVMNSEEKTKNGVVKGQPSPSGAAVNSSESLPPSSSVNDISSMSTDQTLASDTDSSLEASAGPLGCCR
Chain of MAPK9 (human) (P45984 whole entry, looked up): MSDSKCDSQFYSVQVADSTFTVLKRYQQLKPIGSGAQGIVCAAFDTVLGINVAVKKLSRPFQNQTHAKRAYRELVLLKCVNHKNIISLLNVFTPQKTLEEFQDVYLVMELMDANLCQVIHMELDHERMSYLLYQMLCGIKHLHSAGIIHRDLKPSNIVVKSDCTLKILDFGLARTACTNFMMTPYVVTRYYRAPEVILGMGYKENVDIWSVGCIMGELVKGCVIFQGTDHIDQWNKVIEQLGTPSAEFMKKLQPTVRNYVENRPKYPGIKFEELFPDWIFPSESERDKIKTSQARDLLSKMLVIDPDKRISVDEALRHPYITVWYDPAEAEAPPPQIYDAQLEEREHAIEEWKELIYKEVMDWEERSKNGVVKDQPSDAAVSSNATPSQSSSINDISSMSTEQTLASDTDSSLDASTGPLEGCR
Chain of RET (human), P07949 [V804M] (P07949 whole entry V804M, looked up): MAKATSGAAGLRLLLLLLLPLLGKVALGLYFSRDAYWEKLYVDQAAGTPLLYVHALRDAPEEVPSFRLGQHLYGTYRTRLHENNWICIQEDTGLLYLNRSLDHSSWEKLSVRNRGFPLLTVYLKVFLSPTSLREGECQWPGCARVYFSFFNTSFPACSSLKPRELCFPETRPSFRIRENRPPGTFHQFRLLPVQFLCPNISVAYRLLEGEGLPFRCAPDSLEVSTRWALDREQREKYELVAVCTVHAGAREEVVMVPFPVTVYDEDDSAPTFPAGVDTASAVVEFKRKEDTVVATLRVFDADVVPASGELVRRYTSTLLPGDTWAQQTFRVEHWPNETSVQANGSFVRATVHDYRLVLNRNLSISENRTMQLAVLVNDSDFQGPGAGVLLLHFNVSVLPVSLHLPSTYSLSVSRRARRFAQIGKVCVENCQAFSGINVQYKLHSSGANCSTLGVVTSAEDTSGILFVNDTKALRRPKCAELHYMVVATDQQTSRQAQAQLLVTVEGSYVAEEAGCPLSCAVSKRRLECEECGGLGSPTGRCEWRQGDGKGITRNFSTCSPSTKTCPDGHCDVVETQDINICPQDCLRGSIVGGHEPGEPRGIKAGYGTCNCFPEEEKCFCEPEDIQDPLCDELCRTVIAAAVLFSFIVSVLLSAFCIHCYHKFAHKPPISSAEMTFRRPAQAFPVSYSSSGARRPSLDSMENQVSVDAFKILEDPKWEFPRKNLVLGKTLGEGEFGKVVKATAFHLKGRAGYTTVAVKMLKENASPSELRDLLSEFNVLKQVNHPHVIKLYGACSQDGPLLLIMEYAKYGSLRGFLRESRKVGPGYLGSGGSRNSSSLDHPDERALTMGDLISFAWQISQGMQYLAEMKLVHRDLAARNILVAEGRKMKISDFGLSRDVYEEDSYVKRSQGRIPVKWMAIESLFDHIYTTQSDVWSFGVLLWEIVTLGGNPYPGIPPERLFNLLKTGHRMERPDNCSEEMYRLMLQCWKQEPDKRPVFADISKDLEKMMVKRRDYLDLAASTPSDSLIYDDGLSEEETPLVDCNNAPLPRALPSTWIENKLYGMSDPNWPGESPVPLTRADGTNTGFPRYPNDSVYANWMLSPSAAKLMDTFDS
Chain of FGFR3 (human) (P22607 whole entry, looked up): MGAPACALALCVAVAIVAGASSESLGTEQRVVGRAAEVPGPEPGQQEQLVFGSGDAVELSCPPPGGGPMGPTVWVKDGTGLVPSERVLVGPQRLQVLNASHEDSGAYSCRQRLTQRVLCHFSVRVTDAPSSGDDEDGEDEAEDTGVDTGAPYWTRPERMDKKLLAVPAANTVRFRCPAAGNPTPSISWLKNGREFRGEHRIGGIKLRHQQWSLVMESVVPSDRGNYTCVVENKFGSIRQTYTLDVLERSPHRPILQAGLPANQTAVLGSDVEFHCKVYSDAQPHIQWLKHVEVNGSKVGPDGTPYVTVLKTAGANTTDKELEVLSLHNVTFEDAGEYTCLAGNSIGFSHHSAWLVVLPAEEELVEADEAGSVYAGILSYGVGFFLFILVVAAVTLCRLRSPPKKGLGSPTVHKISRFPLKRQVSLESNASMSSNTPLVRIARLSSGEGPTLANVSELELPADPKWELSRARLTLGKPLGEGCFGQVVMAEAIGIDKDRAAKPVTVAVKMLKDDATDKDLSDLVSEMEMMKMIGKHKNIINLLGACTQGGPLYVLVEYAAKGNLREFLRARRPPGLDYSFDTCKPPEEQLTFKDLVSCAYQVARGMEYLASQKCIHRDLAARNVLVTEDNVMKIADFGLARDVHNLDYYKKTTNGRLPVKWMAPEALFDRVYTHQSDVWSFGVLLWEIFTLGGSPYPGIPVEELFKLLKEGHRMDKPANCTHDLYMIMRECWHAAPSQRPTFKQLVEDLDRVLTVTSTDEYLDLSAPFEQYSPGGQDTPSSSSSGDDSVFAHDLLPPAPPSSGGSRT
Chain of CDKL2 (human) (Q92772 whole entry, looked up): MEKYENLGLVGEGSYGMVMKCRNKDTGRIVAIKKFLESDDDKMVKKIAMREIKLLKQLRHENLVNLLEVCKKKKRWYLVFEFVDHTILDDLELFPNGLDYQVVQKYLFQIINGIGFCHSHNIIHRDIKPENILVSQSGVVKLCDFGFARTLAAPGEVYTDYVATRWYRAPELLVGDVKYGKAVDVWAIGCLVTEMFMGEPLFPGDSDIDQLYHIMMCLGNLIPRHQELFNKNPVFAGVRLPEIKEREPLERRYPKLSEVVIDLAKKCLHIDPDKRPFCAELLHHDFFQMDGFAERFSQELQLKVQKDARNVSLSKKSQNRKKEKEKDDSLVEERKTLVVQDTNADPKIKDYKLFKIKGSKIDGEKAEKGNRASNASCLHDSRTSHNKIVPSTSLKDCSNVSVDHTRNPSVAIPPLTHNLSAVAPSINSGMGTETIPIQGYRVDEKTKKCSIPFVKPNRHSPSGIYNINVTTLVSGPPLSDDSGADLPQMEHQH

**Q.** Which kinase still bound, per cent of control [1] does the source give for `CCN1CCN(Cc2ccc(NC(=O)c3ccc(C)c(Oc4ccnc5[nH]ccc45)c3)cc2C(F)(F)F)CC1` here?
**A.** 1.2%

**Q.** And the residual activity (CDK17 (human))?
**A.** 0.1%

**Q.** And the kinase still bound, per cent of control [2]?
**A.** 0.7%

**Q.** And the kinase still bound, per cent of control [3]?
**A.** 14%

**Q.** And the kinase still bound, per cent of control [4]?
**A.** 12%

**Q.** And the kinase still bound, per cent of control (HCK (human))?
**A.** 0.4%

**Q.** And the kinase still bound, per cent of control [5]?
**A.** 1.5%

**Q.** What about the kinase still bound, per cent of control (INSR (human)) of the same compound?
**A.** 30%

**Q.** What about the residual activity (CDK7 (human)) of the same compound?
**A.** 2.4%

**Q.** And the kinase still bound, per cent of control (CaMK1 (human))?
**A.** 0%

**Q.** And the kinase still bound, per cent of control (HIPK1 (human))?
**A.** 6.2%

**Q.** And the kinase still bound, per cent of control (DDR1 (human))?
**A.** 0.05%

**Q.** And the kinase still bound, per cent of control (PDGFRA (human))?
**A.** 0.6%

**Q.** What about the kinase still bound, per cent of control (ABL1 (human)) of the same compound?
**A.** 0.1%

**Q.** What about the kinase still bound, per cent of control [6] of the same compound?
**A.** 1.1%

**Q.** And the kinase still bound, per cent of control (PTK2B (human))?
**A.** 2.1%

**Q.** What about the kinase still bound, per cent of control (MAPK10 (human)) of the same compound?
**A.** 12%

**Q.** And the kinase still bound, per cent of control (CHUK (human))?
**A.** 0.95%

**Q.** And the kinase still bound, per cent of control [7]?
**A.** 1%

**Q.** What about the kinase still bound, per cent of control (PTK6 (human)) of the same compound?
**A.** 28%

**Q.** What about the kinase still bound, per cent of control (STK36 (human)) of the same compound?
**A.** 0.2%

**Q.** And the kinase still bound, per cent of control (EPHB2 (human))?
**A.** 11%

**Q.** And the kinase still bound, per cent of control [8]?
**A.** 11%

**Q.** What about the residual activity (CDKL2 (human)) of the same compound?
**A.** 0.9%

**Q.** And the kinase still bound, per cent of control (LCK (human))?
**A.** 0.8%

**Q.** What about the kinase still bound, per cent of control (PRKCE (human)) of the same compound?
**A.** 20%

**Q.** What about the kinase still bound, per cent of control (FGFR3 (human)) of the same compound?
**A.** 9.4%

**Q.** And the kinase still bound, per cent of control (KIT (human))?
**A.** 0%

**Q.** What about the kinase still bound, per cent of control (FGR (human)) of the same compound?
**A.** 1.2%

**Q.** What about the kinase still bound, per cent of control (FES (human)) of the same compound?
**A.** 2.2%

**Q.** What about the kinase still bound, per cent of control [9] of the same compound?
**A.** 1.1%

**Q.** What about the kinase still bound, per cent of control [10] of the same compound?
**A.** 0.4%

**Q.** What about the kinase still bound, per cent of control [11] of the same compound?
**A.** 4.6%

**Q.** And the kinase still bound, per cent of control (MAPK9 (human))?
**A.** 0%

**Q.** And the kinase still bound, per cent of control [12]?
**A.** 8.4%

**Q.** What about the kinase still bound, per cent of control (TNNI3K (human)) of the same compound?
**A.** 4.8%

**Q.** And the kinase still bound, per cent of control (CAMK1G (human))?
**A.** 20%

**Q.** And the residual activity (CDK18 (human))?
**A.** 1.8%

**Q.** What about the kinase still bound, per cent of control [13] of the same compound?
**A.** 0%

**Q.** And the kinase still bound, per cent of control [14]?
**A.** 14%
